# Laboratory results as given in patent US20180325115A1, “PLANT GROWTH REGULATOR COMPOSTION HAVING SYNERGISTIC EFFECT” (JIANGSU HUIFENG BIO AGRICULTURE CO., LTD., priority 2015, published 2018).
# Key:
# Format in all cases: in vivo
# [1] = system: leaf blight of sorghum; assay: Disease index and prevention effect on leaf blight in the sorghum comprehensive test; details: early tasselling stage, mixtures 4.3 mg/kg, thidiazuron 4 mg/kg, brassinolide 0.3 mg/kg
# Method: (§1) 1. Comprehensive Test on Growth Regulation for Sorghum by Thidiazuron Combined with Brassinolide
# (§2) The thidiazuron and brassinolide were diluted with acetone to give a series of concentrations, and the stems and leaves of crops were sprayed to determine the effect of each concentration on crop growth in the field, so as to make a comprehensive evaluation with respect to the plant height and diameter, the root length, the disease resistance, the quality of fruits, and the yield.
# Prevention effect=(Disease index in water control group-Disease index in treatment group)/Disease index in water control group*100%
# [2] = system: powdery mildew of oat; assay: Disease index and prevention effect on powdery mildew in the oat field test; details: Examples 5.4 mg/kg, thidiazuron 5.0 mg/kg, brassinolide 0.4 mg/kg
# Description: (§3) 1. Comprehensive Test on Growth Regulation, Disease Resistance, and Yield Increase for Oat by Thidiazuron Combined with Brassinolide in Field
# (§4) Application time: filling stage of oat, because diseases such as powdery mildew easily take place during the earing period.
# (§5) Time of application: 1. Formulation examples of the present invention were sprayed, and the results were an average of three replicates.
# [3] = system: oat; assay: Comprehensive field test on growth regulation and yield increase for oat by thidiazuron combined with brassinolide; details: Examples 5.4 mg/kg, thidiazuron 5.0 mg/kg, brassinolide 0.4 mg/kg
# Description: as §3, §4, §5
# [4] = system: sorghum; assay: Comprehensive test on growth regulation for sorghum by thidiazuron combined with brassinolide (plant height, stem diameter, 1000-grain weight, yield); details: mixtures 4.3 mg/kg, thidiazuron 4 mg/kg
# Method: as §1, §2
# Plant height control rate=(Plant height in water control group-Plant height in treatment group)/Plant height in water control group*100%
# Stem diameter increase rate=(Stem diameter in water control group-Stem diameter in treatment group)/Stem diameter in water control group*100%
# Increase rate in 1000-grain weight=(1000-grain weight in water control group−1000-grain weight in treatment group)/1000-grain weight in water control group*100%
# Increase rate in yield per mu=(Yield per mu in water control group−Yield per mu in treatment group)/Yield per mu in water control group*100%
# [5] = early tasselling stage, vs water control, brassinolide 0.3 mg/kg
# [6] = maturity and harvest period, brassinolide 0.3 mg/kg
# [7] = maturity and harvest period, vs water control, brassinolide 0.3 mg/kg
smiles,measurement,setting,value
"O=C(Nc1ccccc1)Nc1cnns1 [Thidiazuron, thidiazuron]",Disease index of leaf blight,[1],10.4
same,Prevention effect (leaf blight),[1]; vs water control,24.1%
same,Disease index of powdery mildew,[2],13.16
same,Prevention effect (powdery mildew),[2]; vs water control,13.3%
same,Plant height,"[3]; 1 spray at filling stage, average of three replicates",120.1 cm
same,Stem diameter,[3],2.38 mm
same,Weight of 1000 grains,[3],35.73
same,Yield,[3],627.3 667M2
same,Control rate (plant height),[3]; vs water control,4.5%
same,Increase rate (stem diameter),[3]; vs water control,3.2%
same,Increase rate (weight of 1000 grains),[3]; vs water control,4.2%
same,Increase rate (yield),[3]; vs water control,4.3%
same,Plant height,"[4]; early tasselling stage, 2 sprays on stems and leaves, 8 days apart, brassinolide 0.3 mg/kg (active ingredient)",120.4 cm
same,Stem diameter,"[4]; early tasselling stage, brassinolide 0.3 mg/kg",2.56 cm
same,Control rate (plant height),[4]; [5],3.4%
same,Increase rate (stem diameter),[4]; [5],2.4%
same,Weight of 1000 grains,[4]; [6],22.1
same,Yield,[4]; [6],555.8 kg/667M^2
same,Increase rate (weight of 1000 grains),[4]; [7],3.6%
same,Increase rate (yield per mu),[4]; [7],3.5%
